Assay results as given in ChEMBL document CHEMBL5550102, “Caged xanthone derivatives to promote mitochondria-mediated apoptosis in breast cancer cells” (Bioorg Med Chem, 2024).

Columns and labels:
Format in all cases: functional, cell-based
HepG2 = experiment: Cytotoxicity against human HepG2 cells incubated for 72 hrs by CCK8 assay; details: HepG2, 72 h
MDA-MB-231 = experiment: Cytotoxicity against human MDA-MB-231 cells incubated for 72 hrs by CCK8 assay; details: MDA-MB-231, 72 h
A549 = experiment: Cytotoxicity against human A549 cells incubated for 72 hrs by CCK8 assay; details: A549, 72 h

| SMILES | IC50 (HepG2) [µM] | IC50 (MDA-MB-231) [µM] | IC50 (A549) [µM] |
| --- | --- | --- | --- |
| COC(=O)C[C@]12C=C3C(=O)c4ccccc4O[C@@]3(CC1)[C@H]1C(=O)NC(=O)[C@H]12 | > 50 | > 50 | > 50 |
| COC(=O)C[C@]12C=C3C(=O)c4ccccc4O[C@@]3(CC1)[C@H]1C(=O)N(c3ccc(OC)cc3)C(=O)[C@H]12 | > 50 | > 50 | > 50 |
| COC(=O)C[C@]12C=C3C(=O)c4cccc(C)c4O[C@@]3(CC1)[C@H]1C(=O)N(c3ccc(Br)cc3)C(=O)[C@H]12 | 22.5 | 23.4 | 29.1 |
| COC(=O)C[C@]12C=C3C(=O)c4ccccc4O[C@@]3(CC1)[C@H]1C(=O)N(C3CCCCC3)C(=O)[C@H]12 | > 50 | > 50 | > 50 |
| COC(=O)C[C@]12C=C3C(=O)c4ccccc4O[C@@]3(CC1)[C@H]1C(=O)N(c3ccc(Br)cc3)C(=O)[C@H]12 | 25.6 | 24.4 | 24.3 |
| COC(=O)C[C@]12C=C3C(=O)c4ccccc4O[C@@]3(CC1)[C@H]1C(=O)N(C)C(=O)[C@H]12 | 16.7 | 37.6 | 37.2 |
| COC(=O)C[C@]12C=C3C(=O)c4ccccc4O[C@@]3(CC1)[C@H]1C(=O)N(c3ccccc3)C(=O)[C@H]12 | 23.6 | 30.5 | 41.9 |
